Results published in patent publication US20090304766A1, “LOCALIZED DELIVERY OF DRUG COMBINATIONS” (priority 2005, published 2009).

Test: in vitro combination dose-effect analysis (cytotoxicity, Chou-Talalay combination index)
Assay type: cell-based
Conditions: FIG. 2D; single agent compared with combination
Method: By way of illustration, individual agents and various combinations thereof are tested for their biological effect on cell culture or a cell-free system, for example causing cell death or inhibiting cell growth, at various concentration levels. The concentration levels of the preset ratios are plotted against the percentage cell survival to obtain a correlation which can be manipulated by known and established mathematical techniques to calculate a “combination index” (CI). The mathematics are such that a CI of 1 (i.e., 0.9-1.1) describes an additive effect of the drugs; a CI>1 (i.e., >1.1) represents an antagonist effect; and a CI of <1 (i.e., <0.9) represents a synergistic effect.
As shown, agents A and B are tested individually and together at two different ratios for their ability to cause cell death or cell stasis as assessed by the MTT assay described below. Initially, correlations between the concentration of drugs A, B, and the two different combination ratios (Y:Z and X:Y) are plotted against cytotoxicity, calculated as a percentage based on the survival of untreated control cells. […] Once this correlation has been established, the cell survival or fraction affected (fa) can be used as a surrogate for concentration in calculating the CI. […]

SMILES | concentration required to achieve a 90% cell kill on its own versus when combined at a non-antagonistic ratio
CCc1c2c(nc3ccc(OC(=O)N4CCC(N5CCCCC5)CC4)cc13)-c1cc3c(c(=O)n1C2)COC(=O)[C@]3(O)CC [irinotecan] | significantly higher
N.N.O=C([O-])C1(C(=O)[O-])CCC1.[Pt+2] [carboplatin] | significantly higher
